Values quoted from earlier work, collected in patent US20160015644A1, “GASTRO-RETENTIVE SUSTAINED-RELEASE ORAL DOSAGE FORM OF A BILE ACID SEQUESTRANT” (IRONWOOD PHARMACEUTICALS, INC., priority 2013, published 2016).

How the values were obtained:
[1] = target: gastric proton pump (Canis lupus familiaris, UniProt P50996); conditions: conscious, pentagastrin-stimulated fistula dog
[2] = target: gastric proton pump (Homo sapiens, UniProt P20648)
gastric proton pump (Homo sapiens, UniProt P20648), sequence (P20648 whole entry): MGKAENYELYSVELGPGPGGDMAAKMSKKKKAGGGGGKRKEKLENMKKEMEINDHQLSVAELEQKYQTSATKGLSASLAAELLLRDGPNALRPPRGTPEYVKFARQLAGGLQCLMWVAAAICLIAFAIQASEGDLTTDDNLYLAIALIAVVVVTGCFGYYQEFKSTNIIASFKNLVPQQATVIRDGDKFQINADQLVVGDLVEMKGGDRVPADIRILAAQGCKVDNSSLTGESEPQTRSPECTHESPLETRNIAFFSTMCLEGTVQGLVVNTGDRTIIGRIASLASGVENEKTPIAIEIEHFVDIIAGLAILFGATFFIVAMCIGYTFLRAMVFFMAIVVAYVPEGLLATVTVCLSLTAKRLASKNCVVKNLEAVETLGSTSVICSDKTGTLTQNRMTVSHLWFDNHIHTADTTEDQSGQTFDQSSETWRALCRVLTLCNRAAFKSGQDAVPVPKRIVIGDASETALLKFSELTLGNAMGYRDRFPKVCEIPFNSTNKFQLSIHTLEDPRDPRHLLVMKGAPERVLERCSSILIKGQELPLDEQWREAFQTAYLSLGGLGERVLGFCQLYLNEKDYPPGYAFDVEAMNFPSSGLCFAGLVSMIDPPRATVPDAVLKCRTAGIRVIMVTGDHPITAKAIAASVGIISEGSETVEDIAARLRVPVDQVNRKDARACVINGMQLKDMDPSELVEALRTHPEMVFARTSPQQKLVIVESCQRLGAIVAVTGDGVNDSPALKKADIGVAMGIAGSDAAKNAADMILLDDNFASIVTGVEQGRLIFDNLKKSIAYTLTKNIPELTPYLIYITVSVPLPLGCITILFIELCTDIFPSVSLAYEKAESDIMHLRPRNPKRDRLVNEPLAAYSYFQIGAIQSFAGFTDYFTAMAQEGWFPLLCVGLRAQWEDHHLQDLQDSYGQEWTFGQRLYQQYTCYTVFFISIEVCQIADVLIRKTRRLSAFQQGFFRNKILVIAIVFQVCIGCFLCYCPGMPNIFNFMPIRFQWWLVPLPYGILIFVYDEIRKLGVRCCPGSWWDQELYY
gastric proton pump (Homo sapiens, UniProt P20648), sequence (P51164 whole entry partner): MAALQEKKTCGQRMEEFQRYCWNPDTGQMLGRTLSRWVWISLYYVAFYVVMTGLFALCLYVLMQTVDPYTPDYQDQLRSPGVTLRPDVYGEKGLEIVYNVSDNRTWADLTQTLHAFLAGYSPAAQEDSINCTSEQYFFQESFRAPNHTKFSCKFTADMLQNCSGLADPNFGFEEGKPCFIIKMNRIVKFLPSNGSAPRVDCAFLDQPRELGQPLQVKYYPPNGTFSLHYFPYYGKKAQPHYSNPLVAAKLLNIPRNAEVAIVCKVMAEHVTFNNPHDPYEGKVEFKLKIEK

gastric proton pump (Canis lupus familiaris, UniProt P50996), sequence (P50996 whole entry): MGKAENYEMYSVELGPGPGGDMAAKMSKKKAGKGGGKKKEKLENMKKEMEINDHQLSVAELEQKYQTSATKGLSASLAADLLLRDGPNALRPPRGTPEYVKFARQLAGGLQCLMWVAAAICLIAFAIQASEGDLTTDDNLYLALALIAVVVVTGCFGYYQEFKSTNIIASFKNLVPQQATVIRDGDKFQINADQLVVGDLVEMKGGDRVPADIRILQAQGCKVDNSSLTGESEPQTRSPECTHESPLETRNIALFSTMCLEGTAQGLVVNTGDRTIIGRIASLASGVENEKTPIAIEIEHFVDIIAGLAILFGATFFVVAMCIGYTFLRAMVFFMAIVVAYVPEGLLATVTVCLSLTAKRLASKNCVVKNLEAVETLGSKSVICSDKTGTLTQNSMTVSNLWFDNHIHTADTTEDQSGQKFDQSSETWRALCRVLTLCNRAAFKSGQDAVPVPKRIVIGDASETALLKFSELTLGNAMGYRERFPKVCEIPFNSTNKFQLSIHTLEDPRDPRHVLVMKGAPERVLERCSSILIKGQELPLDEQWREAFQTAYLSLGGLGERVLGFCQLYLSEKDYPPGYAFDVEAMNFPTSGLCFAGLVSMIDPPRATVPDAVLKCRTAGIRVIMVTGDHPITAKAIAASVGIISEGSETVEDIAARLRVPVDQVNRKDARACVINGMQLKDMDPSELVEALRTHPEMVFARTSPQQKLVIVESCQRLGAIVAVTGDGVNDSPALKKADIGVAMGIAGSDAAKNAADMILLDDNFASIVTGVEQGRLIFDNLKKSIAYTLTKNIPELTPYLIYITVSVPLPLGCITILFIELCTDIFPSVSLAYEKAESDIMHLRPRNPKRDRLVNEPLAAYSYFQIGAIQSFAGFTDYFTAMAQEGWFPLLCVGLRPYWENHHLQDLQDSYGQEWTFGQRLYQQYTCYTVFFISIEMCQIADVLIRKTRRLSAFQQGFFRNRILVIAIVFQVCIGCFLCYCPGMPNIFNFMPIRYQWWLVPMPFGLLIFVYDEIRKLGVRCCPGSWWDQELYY
gastric proton pump (Canis lupus familiaris, UniProt P50996), sequence (P33704 whole entry partner): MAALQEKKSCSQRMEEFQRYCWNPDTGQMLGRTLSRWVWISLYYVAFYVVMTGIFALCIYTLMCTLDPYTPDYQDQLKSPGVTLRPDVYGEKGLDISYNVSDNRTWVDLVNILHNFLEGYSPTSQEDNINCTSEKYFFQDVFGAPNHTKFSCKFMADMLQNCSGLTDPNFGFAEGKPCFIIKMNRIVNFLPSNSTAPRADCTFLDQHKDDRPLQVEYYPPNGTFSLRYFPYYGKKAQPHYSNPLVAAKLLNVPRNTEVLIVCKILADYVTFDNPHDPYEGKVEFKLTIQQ

For `COC(=O)Nc1cccc(C)c1CNc1cccn2c(C)c(C)nc12` [BY841, (8-(2-methoxcarbonylamino-6-methyl-phenylmethylamino)-2,3-dimethyl-imida [1,2-a]-pyridine)], the “intragastric pH” value [1] is listed as ≤ 6, the “comparison with ranitidine and omeprazole” value ([1]; elevation of intragastric pH) is listed as “superior to both ranitidine and omeprazole” and the “effectiveness in comparison with the standard dose of omeprazole” value ([2]; 50 mg or 100 mg twice daily, Day one of treatment) is listed as “markedly more effective”. The “potency in comparison with the standard dose of omeprazole” value ([2]; 50 mg or 100 mg twice daily, following repeated daily administration) was “at least as potent as omeprazole” and the “intragastric pH” value ([2]; single 50 mg oral dose) was “about 6”.
